In patent publication US6093732A, “4-hydroxyquinoline-3-carboxamides and hydrazides as antiviral agents” (Pharmacia & Upjohn Company, priority 1998, dated 2000) one finds IC50 data, which are given here for 26 compounds.

T1 sequence (P08546 whole entry): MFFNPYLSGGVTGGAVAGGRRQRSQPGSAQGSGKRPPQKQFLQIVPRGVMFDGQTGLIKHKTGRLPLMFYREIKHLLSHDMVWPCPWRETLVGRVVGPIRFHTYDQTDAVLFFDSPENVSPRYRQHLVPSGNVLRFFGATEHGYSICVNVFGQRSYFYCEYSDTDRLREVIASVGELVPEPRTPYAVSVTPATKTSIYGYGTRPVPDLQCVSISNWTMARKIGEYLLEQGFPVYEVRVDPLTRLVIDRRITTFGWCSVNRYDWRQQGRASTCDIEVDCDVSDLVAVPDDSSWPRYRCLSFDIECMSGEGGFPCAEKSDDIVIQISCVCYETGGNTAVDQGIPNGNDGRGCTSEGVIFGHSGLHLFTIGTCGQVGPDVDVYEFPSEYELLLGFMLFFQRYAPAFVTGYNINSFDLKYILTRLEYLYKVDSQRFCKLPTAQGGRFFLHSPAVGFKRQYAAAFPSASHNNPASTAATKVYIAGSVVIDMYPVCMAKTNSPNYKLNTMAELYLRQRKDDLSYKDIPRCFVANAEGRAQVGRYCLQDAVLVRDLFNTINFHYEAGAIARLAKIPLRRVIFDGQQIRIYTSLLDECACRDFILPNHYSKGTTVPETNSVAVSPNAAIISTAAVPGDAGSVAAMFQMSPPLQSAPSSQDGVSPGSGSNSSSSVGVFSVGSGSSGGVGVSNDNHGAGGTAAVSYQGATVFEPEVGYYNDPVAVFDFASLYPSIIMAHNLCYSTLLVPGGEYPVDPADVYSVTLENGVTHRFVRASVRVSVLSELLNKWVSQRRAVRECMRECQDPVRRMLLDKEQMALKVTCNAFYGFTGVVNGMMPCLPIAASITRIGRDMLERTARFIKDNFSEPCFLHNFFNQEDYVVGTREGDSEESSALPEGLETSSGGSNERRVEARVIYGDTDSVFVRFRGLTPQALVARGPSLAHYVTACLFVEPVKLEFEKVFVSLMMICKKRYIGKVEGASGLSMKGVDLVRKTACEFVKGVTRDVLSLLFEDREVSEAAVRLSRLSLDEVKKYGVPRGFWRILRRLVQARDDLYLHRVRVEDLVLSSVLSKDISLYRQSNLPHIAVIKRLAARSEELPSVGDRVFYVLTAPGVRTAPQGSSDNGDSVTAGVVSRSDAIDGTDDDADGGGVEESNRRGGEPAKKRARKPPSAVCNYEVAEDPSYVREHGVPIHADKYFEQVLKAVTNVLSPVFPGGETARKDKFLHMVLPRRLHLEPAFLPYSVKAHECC
Chain of VZV polymerase (P09252 whole entry): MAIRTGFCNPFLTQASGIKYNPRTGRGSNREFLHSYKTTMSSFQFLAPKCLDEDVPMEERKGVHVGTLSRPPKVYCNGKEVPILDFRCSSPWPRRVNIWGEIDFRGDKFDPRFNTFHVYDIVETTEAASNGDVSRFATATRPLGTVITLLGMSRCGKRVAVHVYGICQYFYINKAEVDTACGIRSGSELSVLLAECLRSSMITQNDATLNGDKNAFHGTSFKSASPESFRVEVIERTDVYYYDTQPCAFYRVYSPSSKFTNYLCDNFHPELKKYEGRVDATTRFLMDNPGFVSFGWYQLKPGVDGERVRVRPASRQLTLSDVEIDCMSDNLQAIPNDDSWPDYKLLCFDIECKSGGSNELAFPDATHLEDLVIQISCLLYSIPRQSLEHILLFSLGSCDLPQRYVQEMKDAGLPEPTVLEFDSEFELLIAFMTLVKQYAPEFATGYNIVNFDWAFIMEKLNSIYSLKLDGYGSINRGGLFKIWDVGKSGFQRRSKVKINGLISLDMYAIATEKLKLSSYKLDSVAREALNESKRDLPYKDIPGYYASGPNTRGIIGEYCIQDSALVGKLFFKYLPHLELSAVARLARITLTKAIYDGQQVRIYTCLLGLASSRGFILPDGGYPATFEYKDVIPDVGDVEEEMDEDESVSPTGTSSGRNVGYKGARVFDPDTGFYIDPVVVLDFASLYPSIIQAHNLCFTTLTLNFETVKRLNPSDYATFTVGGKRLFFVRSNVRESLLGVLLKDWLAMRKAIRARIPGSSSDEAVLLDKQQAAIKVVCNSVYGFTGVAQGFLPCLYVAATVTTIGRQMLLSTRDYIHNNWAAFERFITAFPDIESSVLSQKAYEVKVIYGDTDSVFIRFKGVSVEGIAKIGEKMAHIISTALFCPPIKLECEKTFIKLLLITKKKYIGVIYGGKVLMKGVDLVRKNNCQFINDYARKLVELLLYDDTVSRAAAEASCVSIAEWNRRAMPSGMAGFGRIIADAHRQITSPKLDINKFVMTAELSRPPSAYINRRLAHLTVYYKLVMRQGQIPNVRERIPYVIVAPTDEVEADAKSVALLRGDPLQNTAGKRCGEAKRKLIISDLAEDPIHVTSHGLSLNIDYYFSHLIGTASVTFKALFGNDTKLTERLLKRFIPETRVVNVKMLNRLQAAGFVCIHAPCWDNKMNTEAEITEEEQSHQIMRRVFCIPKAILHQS

One test deals with HSV polymerase (Human herpesvirus 1, UniProt P04293). The experiment in a line: HSV polymerase assay (procedure similar to the HCMV polymerase SPA). It counts as biochemical. Conditions: Table 1, read-out: Antiviral Selective Polymerase IC50 Values, HSV. As to the method: (§1) The HCMV polymerase assay is performed using a scintillation proximity assay (SPA) as described in several references, such as N. D. Cook, et al., Pharmaceutical Manufacturing International, pages 49-53 (1992); K. Takeuchi, Laboratory Practice, September issue (1992); U.S. Pat. No. 4,568,649 (1986); which are incorporated by reference herein. Reactions are performed in 96-well plates. The assay is conducted in 100 μl volume with 5.4 mM HEPES (pH 7.5), 11.7 mM KCl, 4.5 mM MgCl2, 0.36 mg/ml BSA, and 90 nM ^3 H-dTTP. Assays are run with and without CHAPS, (3-[(3-Cholamidopropyl)-dimethylammonio]-1-propane-sulfonate) at a final concentration of 2 mM. HCMV polymerase is diluted in enzyme dilution buffer containing 50% glycerol, 250 mM NaCl, 10 mM HEPES (pH 7.5), 100 μg/ml BSA, and 0.01% sodium azide. The HCMV polymerase, which is expressed in recombinant baculovirus-infected SF-9 cells and purified according to literature procedures, is added at 10% (or 10 μl) of the final reaction volume, i.e., 100 μl. Compounds are diluted in 50% DMSO and 10 μl are added to each well. Control wells contain an equivalent concentration of DMSO. Unless noted otherwise, reactions are initiated via the addition of 6 nM biotinylated poly(dA)-oligo(dT) template/primer to reaction mixtures containing the enzyme, substrate, and compounds of interest. Plates are incubated in a 25° C. or 37° C. H2 O bath and terminated via the addition of 40 μl/reaction of 0.5 M EDTA (pH 8) per well. Reactions are terminated within the time-frame during which substrate incorporation is linear and varied depending upon the enzyme and conditions used, i.e., 30 min. for HCMV polymerase. Ten μl of streptavidin-SPA beads (20 mg/ml in PBS/10% glycerol) are added following termination of the reaction. Plates are incubated 10 min. at 37° C., then equilibrated to room temperature, and counted on a Packard Topcount. Linear regressions are performed and IC50 's are calculated using computer software.
Chain of HSV polymerase (P04293 whole entry): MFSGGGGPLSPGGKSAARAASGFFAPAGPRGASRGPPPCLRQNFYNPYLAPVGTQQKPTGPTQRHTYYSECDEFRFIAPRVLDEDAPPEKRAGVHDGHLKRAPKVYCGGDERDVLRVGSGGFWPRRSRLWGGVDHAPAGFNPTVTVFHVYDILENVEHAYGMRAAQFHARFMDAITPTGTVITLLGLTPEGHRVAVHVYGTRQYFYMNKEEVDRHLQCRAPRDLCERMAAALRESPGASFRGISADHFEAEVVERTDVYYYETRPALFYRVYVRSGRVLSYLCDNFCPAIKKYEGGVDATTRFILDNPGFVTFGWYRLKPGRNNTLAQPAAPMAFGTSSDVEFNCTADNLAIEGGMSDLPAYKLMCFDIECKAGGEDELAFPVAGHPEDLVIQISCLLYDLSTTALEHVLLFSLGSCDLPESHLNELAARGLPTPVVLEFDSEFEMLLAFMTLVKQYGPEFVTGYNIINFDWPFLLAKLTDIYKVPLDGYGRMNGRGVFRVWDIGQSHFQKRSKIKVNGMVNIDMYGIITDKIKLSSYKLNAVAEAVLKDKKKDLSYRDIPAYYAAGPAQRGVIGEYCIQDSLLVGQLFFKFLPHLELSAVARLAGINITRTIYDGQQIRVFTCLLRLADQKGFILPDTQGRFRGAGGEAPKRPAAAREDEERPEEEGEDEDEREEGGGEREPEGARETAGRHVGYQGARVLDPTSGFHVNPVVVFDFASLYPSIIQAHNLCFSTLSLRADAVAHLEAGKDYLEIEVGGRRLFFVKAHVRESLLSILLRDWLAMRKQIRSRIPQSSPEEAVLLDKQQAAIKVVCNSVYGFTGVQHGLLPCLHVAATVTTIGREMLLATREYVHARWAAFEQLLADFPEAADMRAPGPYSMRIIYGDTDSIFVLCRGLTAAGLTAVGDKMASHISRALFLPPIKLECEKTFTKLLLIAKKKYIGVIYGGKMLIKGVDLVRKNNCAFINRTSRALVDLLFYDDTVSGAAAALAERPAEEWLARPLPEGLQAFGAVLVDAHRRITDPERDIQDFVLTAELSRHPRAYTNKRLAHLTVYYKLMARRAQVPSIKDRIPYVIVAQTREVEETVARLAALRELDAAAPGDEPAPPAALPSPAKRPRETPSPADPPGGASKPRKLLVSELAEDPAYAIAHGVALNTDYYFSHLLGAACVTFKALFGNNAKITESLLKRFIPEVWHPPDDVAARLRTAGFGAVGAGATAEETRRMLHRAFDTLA
(§2) A modified version of the above HCMV polymerase assay is performed as described above, but with the following changes: Compounds are diluted in 100% DMSO until final dilution into assay buffer. In the previous assay, compounds are diluted in 50% DMSO. 4.5 mM dithiotherotol (DTT) is added to the polymerase buffer. […] Other viral polymerase assays are performed using procedures similar to those described above.
`O=C(NCc1ccc(Cl)cc1)c1cnc2c(F)cc(F)c(F)c2c1O` [Example 168, N-[(4-Chlorophenyl)methyl]-5,6,8-trifluoro-4-hydroxy-3-quinolinecarboxamide]: the half-inhibitory concentration (IC50) (in general, the point on the concentration scale where inhibition reaches its midpoint) was 8.4 µM.

Another test has as its target T1, HCMV polymerase (Human cytomegalovirus, UniProt P08546).
T1 construct: made in house; host or cells: recombinant baculovirus-infected SF-9 cells
Nature of the test: HCMV polymerase scintillation proximity assay (SPA), modified version. Format: biochemical. The conditions noted are these: CMV polymerase; Table 1; modified assay with 4.5 mM DTT, compounds in 100% DMSO; read-out: Antiviral Selective Polymerase IC50 Values, CMV. The gist of the method:
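SPA measuring 3H-dTTP (90 nM) incorporation on 6 nM biotinylated poly(dA)-oligo(dT) by SF-9-expressed enzyme, pH 7.5 HEPES/KCl/MgCl2/BSA buffer with or without 2 mM CHAPS. Run at 25° C or 37° C, stopped with EDTA while linear (HCMV 30 min); IC50 from linear regression. Modified format adds 4.5 mM DTT, compounds diluted in 100% DMSO.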
(SPA uses beads or plates that emit light when radiolabelled molecules are held near them.)
As to `O=C(NCc1ccc(Cl)cc1)c1cnc2c(F)cc(F)c(F)c2c1O` [Example 168, N-[(4-Chlorophenyl)methyl]-5,6,8-trifluoro-4-hydroxy-3-quinolinecarboxamide], the half-inhibitory concentration (IC50) came out at 10 µM.
As for `Cc1ccccc1-c1cc(F)c2ncc(C(=O)NCc3ccc(Cl)cc3)c(O)c2c1` [Example 77, N-((4-Chlorophenyl)methyl)-8-fluoro-4-hydroxy-6-(2-methyl-phenyl)-3-quinolinecarboxamide], the 50% inhibitory concentration (IC50) came out at 4 µM.
Still for that read-out and setting: the result for `COC(=O)c1cc(F)c2ncc(C(=O)NCc3ccc(Cl)cc3)c(O)c2c1` [Example 109, Methyl 3-{[(4-chlorobenzyl)amino]carbonyl}-8-fluoro-4-hydroxy-6-quinolinecarboxylate] reads 11 µM; that for `O=C(NCc1ccc(Cl)cc1)c1cnc2c(F)cc(S(=O)(=O)NCc3ccc(Cl)cc3)cc2c1O` [Example 220, N-(4-chlorobenzyl)-6-{[(4-chlorobenzyl)amino]sulfonyl}-8-fluoro-4-hydroxy-3-quinolinecarboxamide], 10.7 µM; that for `CCCCCNS(=O)(=O)c1cc(F)c2ncc(C(=O)NCc3ccc(Cl)cc3)c(O)c2c1` [Example 235, N-(4-chlorobenzyl)-8-fluoro-4-hydroxy-6-[(pentylamino)sulfonyl]-3-quinolinecarboxamide], 11.8 µM.
Still for that read-out and setting: the result for `O=C(NCc1ccc(Cl)cc1)c1cnc2ccc(COC(CO)CO)cc2c1O` [Example 164, N-(4-Chlorobenzyl)-4-hydroxy-6-{[2-hydroxy-1-(hydroxymethyl)ethoxy]methyl}-3-quinolinecarboxamide] reads 2.3 µM; that for `CC(C)(C)OC(=O)NCCCCC(NC(=O)OC(C)(C)C)C(=O)OCCCc1cc(F)c2ncc(C(=O)NCc3ccc(Cl)cc3)c(O)c2c1` (stereo not shown) [Example 155, 3-(3{[(4-Chlorobenzyl)amino]carbonyl}-8-fluoro-4-hydroxy-6-quinolinyl)propyl 2,6-bis[(tert-butoxycarbonyl)amino]hexanoate], ≥ 50 µM; that for `CC(C)(N)CNS(=O)(=O)c1cc(F)c2ncc(C(=O)NCc3ccc(Cl)cc3)c(O)c2c1` [Example 264, 6-{[(2-amino-2-methylpropyl)amino]sulfonyl}-N-(4-chlorobenzyl)-8-fluoro-4-hydroxy-3-quinolinecarboxamide], 90.2 µM.
On the same count and under the same terms, the result for `O=C(NCc1ccc(Cl)cc1)c1cnc2c(F)cc(C#CCF)cc2c1O` [Example 143, N-(4-Chlorobenzyl)-8-fluoro-6-(3-fluoro-1-propynyl)-4-hydroxy-3-quinolinecarboxamide] reads 3 µM.
With `Cc1c(N)ccc2c(O)c(C(=O)NCc3ccc(Cl)cc3)cnc12` [Example 50, 7-Amino-N-[(4-chlorophenyl)methyl]-4-hydroxy-8-methyl-3-quinolinecarboxamid], the IC50 was 6.9 µM.
Still for that read-out and setting: the result for `O=C(NCc1ccc(Cl)cc1)c1cnc2c(F)cc(S(=O)(=O)NCC(O)CO)cc2c1O` (stereo not shown) [Example 224, N-(4-chlorobenzyl)-6-{[(2,3-dihydroxypropyl)amino]sulfonyl}-8-fluoro-4-hydroxy-3-quinolinecarboxamide] reads 21.6 µM; that for `O=C(NCc1ccc(Cl)cc1)c1cnc2c(F)cc(S(=O)(=O)NCCNc3ccc([N+](=O)[O-])cn3)cc2c1O` [Example 215, N-(4-chlorobenzyl)-8-fluoro-4-hydroxy-6-[({2-[(5-nitro-2-pyridinyl)amino]ethyl}amino)sulfonyl]-3-quinolinecarboxamide], 8.6 µM; that for `CC(C)C(N)C(=O)OCCCc1cc(F)c2ncc(C(=O)NCc3ccc(Cl)cc3)c(O)c2c1` (stereo not shown) [Example 149, 3-(3-{[(4-Chlorobenzyl)amino]carbonyl}-8-fluoro-4-hydroxy-6-quinolinyl)propyl 2-amino-3-methylbutanoate], 6.3 µM.
On the same count and under the same terms, the result for `O=C(NCc1ccc(Cl)cc1)c1cnc2c(F)cc(S(=O)(=O)NCC(c3ccccc3)c3ccccc3)cc2c1O` [Example 225, N-(4-chlorobenzyl)-6-{[(2,2-diphenylethyl)amino]sulfonyl}-8-fluoro-4-hydroxy-3-quinolinecarboxamide] reads 8.5 µM; that for `O=C(NCc1ccc(Cl)cc1)c1cnc2c(F)cc(S(=O)(=O)NCCCNC3CCCCC3)cc2c1O` [Example 205, N-(4-chlorobenzyl)-6-({[3-(cyclohexylamino)propyl]amino}sulfonyl)-8-fluoro-4-hydroxy-3-quinolinecarboxamide], ≥ 50 µM.
Same read-out and setting: then `O=C(O)CCCCCCCCCCNS(=O)(=O)c1cc(F)c2ncc(C(=O)NCc3ccc(Cl)cc3)c(O)c2c1` [Example 226, 11-{[(3-{[(4-chlorobenzyl)amino]carbonyl}-8-fluoro-4-hydroxy-6-quinolinyl)sulfonyl]amino}undecanoic acid], with 18.5 µM; and `O=C(NCc1ccc(Cl)cc1)c1cnc2c(F)cc(S(=O)(=O)NCC(F)(F)F)cc2c1O` [Example 243, N-(4-chlorobenzyl)-8-fluoro-4-hydroxy-6-{[(2,2,2-trifluoroethyl)amino]sulfonyl}-3-quinolinecarboxamide], with 15.5 µM; and `CSCC#Cc1cc(F)c2ncc(C(=O)NCc3ccc(Cl)cc3)c(O)c2c1` [Example 126, N-[(4-Chlorophenyl)methyl]-8-fluoro-4-hydroxy-6-[3-(methylthio)-1-propynyl]-3-quinolinecarboxamide], with 19.7 µM.
For `O=C(NCc1ccc(Cl)cc1)c1cnc2c(F)cc(S(=O)(=O)NCc3cccc(OC(F)(F)F)c3)cc2c1O` [Example 259, N-(4-chlorobenzyl)-8-fluoro-4-hydroxy-6-({[3-(trifluoro-methoxy)benzyl]amino}sulfonyl)-3-quinolinecarboxamide], the IC50 was determined as 6.1 µM.
Same read-out and setting: the result for `CC(C)(C)OC(=O)CCNS(=O)(=O)c1cc(F)c2ncc(C(=O)NCc3ccc(Cl)cc3)c(O)c2c1` [Example 258, tert-butyl 3-{[(3-{[(4-chlorobenzyl)amino]carbonyl}-8-fluoro-4-hydroxy-6-quinolinyl)sulfonyl]amino}propanoate] reads 15.2 µM; that for `CSC/C=C\c1cc(F)c2ncc(C(=O)NCc3ccc(Cl)cc3)c(O)c2c1` [Example 128, N-[(4-Chlorophenyl)methyl]-8-fluoro-4-hydroxy-6-[(1Z)-3-(methylthio)-1-propenyl]-3-quinolinecarboxamide], 0.46 µM.
The same measure, in the same setting: then `CS(=O)(=O)c1cc(F)c2ncc(C(=O)NCc3ccc(Cl)cc3)c(O)c2c1` [Example 176, N-(4-Chlorobenzyl)-8-fluoro-4-hydroxy-6-(methylsulfonyl)-3-quinolinecarboxamide], with 11.4 µM; and `O=C(NCc1ccc(Cl)cc1)c1cnc2c(F)cc(S(=O)(=O)NCCc3ccccn3)cc2c1O` [Example 217, N-(4-chlorobenzyl)-8-fluoro-4-hydroxy-6-({[2-(2-pyridinyl)ethyl]amino}sulfonyl)-3-quinolinecarboxamide], with 15.2 µM; and `O=C(NCc1ccc(Cl)cc1)c1cnc2ccc(CCCO[PH](=O)O)cc2c1O` [Example 272, 3-(3-{[(4-Chlorobenzyl)amino]carbonyl}-4-hydroxy-6-quinolinyl)propyl hydrogen phosphonate], with 8.6 µM.
With `CN(C)C(=O)c1cc(F)c2ncc(C(=O)NCc3ccc(Cl)cc3)c(O)c2c1` [Example 182, N^3-(4-Chlorobenzyl)-8-fluoro-4-hydroxy-N^6,N^6-dimethyl-3,6-quinolinedicarboxamide], the concentration for half-maximal inhibition (IC50) stood at 5 µM.
On the same count and under the same terms, then `O=C(NCc1ccc(Cl)cc1)c1cnc2c(F)cc(S(=O)(=O)NCCN3CCCC3)cc2c1O` [Example 203, N-(4-chlorobenzyl)-8-fluoro-4-hydroxy-6-({[2-(1-pyrrolidinyl)ethyl]amino}sulfonyl)-3-quinolinecarboxamide], with 38.8 µM.

The target of another test is VZV polymerase (Varicella-zoster virus, UniProt P09252). Nature of the test: VZV polymerase assay (procedure similar to the HCMV polymerase SPA). It counts as biochemical. Conditions: Table 1, read-out: Antiviral Selective Polymerase IC50 Values, VZV. The procedure:
as §1, §2
For the compound `O=C(NCc1ccc(Cl)cc1)c1cnc2c(F)cc(F)c(F)c2c1O` [Example 168, N-[(4-Chlorophenyl)methyl]-5,6,8-trifluoro-4-hydroxy-3-quinolinecarboxamide], the half-inhibitory concentration (IC50) came to 4.1 µM.
